Patent publication US20110183980A1, “O-BENZYL NICOTINAMIDE ANALOGS AS MGLUR5 POSITIVE ALLOSTERIC MODULATORS” (priority 2009, published 2011)

Molecular target: T1, rat mGluR5 (Rattus norvegicus, UniProt P31424)
T1 construct: expressed in transfected cells; host or cells: human embryonic kidney (HEK) cells
Assay: Potentiation of glutamate response, Ca2+ fluorescence (FDSS) in HEK cells transfected with rat mGluR5
Type: cell-based
Conditions: Table 1; potentiation of mGluR5 response to glutamate; read-out: EC50
Protocol: Human embryonic kidney (HEK) cells transfected with rat mGluR5 were plated in clear bottom assay plates for assay in a Functional Drug Screening System (FDSS). The cells were loaded with a Ca^2+-sensitive fluorescent dye (e.g., Fluo-4), and the plates were washed and placed in the FDSS instrument. After establishment of a fluorescence baseline for twelve seconds, the compounds of the present invention were added to the cells, and the response in cells was measured. Five minutes later, an mGluR5 agonist (e.g., glutamate, 3,5-dihydroxyphenylglycine, or quisqualate) was added to the cells, and the response of the cells was measured. Potentiation of the agonist response of mGluR5 by the compounds in the present invention was observed as an increase in response to non-maximal concentrations of agonist (here, glutamate) in the presence of compound compared to the response to agonist in the absence of compound.
The above described assay operated in two modes. In the first mode, a range of concentrations of the present compounds were added to cells, followed by a single fixed concentration of agonist. If a compound acted as a potentiator, an EC50 value for potentiation and a maximum extent of potentiation by the compound at this concentration of agonist was determined by non-linear curve fitting. In the second mode, several fixed concentrations of the present compounds were added to various wells on a plate, followed by a range of concentrations of agonist for each concentration of present compound; the EC50 values for the agonist at each concentration of compound were determined by non-linear curve fitting. A decrease in the EC50 value of the agonist with increasing concentrations of the present compounds (a leftward shift of the agonist concentration-response curve) is an indication of the degree of mGluR5 potentiation at a given concentration of the present compound. An increase in the EC50 value of the agonist with increasing concentrations of the present compounds (a rightward shift of the agonist concentration-response curve) is an indication of the degree of mGluR5 antagonism at a given concentration of the present compound. The second mode also indicates whether the present compounds also affect the maximum response to mGluR5 to agonists.

T1 sequence (P31424 21-1203): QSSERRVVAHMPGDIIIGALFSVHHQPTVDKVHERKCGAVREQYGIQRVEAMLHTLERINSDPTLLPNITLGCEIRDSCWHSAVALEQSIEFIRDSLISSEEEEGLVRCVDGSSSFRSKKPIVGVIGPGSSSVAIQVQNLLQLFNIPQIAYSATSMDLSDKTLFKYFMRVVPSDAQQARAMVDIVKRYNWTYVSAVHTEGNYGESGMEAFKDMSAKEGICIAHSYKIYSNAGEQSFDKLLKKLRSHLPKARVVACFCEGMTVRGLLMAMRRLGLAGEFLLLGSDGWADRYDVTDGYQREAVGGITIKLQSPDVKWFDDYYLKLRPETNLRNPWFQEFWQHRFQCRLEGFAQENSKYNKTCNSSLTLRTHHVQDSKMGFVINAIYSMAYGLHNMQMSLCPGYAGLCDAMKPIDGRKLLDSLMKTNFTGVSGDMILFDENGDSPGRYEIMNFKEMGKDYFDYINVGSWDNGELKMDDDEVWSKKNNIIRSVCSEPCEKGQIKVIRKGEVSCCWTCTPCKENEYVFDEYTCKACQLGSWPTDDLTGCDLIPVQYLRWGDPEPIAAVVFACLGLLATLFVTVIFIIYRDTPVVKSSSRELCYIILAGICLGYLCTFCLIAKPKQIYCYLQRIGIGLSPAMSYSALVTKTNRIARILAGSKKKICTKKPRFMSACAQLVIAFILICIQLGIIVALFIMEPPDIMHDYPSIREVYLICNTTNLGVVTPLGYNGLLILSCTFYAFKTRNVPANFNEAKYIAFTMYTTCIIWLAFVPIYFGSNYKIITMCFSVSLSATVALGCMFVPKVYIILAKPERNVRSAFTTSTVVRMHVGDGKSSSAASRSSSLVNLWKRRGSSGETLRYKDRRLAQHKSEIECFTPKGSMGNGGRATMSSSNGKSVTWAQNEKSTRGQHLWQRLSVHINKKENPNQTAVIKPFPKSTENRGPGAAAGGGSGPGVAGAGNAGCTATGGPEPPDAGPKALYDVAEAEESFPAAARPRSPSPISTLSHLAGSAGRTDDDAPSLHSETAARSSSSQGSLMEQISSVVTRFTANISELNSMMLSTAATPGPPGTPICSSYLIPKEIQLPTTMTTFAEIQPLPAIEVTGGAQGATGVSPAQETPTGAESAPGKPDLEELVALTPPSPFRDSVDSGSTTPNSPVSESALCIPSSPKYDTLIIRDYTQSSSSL

Compound	EC50 [nM]
CCCCOc1ccc(C(=O)NC(C)(C)C)cn1 [Example 1.2j.3]	≥ 10000
O=C(NC1CCOCC1)c1ccc(OCc2ccccc2)nc1 [Example 1.2a.23]	3900
O=C(NCC1CC1)c1ccc(OCc2cccc(F)c2)nc1 [Example 1.2c.14]	920
O=C(Nc1ccccn1)c1ccc(OCc2ccc(F)cc2)nc1 [Example 1.2d.1]	1300
O=C(Nc1ccncn1)c1ccc(OCc2ccccc2)nc1 [Example 1.2a.13]	1100
CC(C)(C)CCNC(=O)c1ccc(OCc2ccccc2)nc1 [Example 1.2a.8]	92
CC(C)(C)CCNC(=O)c1ccc(OCc2cc(F)cc(F)c2)nc1 [Example 1.2e.1]	1100
O=C(c1ccc(OCc2cccc(F)c2)nc1)N1CCOCC1 [Example 1.2c.7]	1700
O=C(NCc1ccccn1)c1ccc(OCc2ccccc2)nc1 [Example 1.2a.12]	3400
CCCCOc1ccc(C(=O)NC2CCCCCC2)cn1 [Example 1.2j.7]	2200
O=C(Nc1cccc(F)c1)c1ccc(OCc2cccc(F)c2)nc1 [Example 1.2c.10]	460
O=C(NCC1CCOCC1)c1ccc(OCc2ccccc2)nc1 [Example 1.2a.21]	3900
O=C(Nc1ccccn1)c1ccc(OCc2ccccc2F)nc1 [Example 1.2f.1]	300
O=C(Nc1ccc(F)cc1)c1ccc(OCc2ccccc2)nc1 [Example 1.2a.17]	340
CCCCOc1ccc(C(=O)Nc2ccccc2)cn1 [Example 1.2j.5]	650
O=C(Nc1ccccn1)c1ccc(OCc2ccccc2)nc1 [Example 1.2a.4]	410
Cc1nc(OCc2ccccc2)ccc1C(=O)NCCC(C)(C)C [Example 1.2b.3]	400
O=C(Nc1cccc(F)c1)c1ccc(OCc2ccccc2)nc1 [Example 1.2a.16]	530
O=C(NCc1ccccn1)c1ccc(OCc2cccc(F)c2)nc1 [Example 1.2c.8]	2700
CC(C)(C)CCNC(=O)c1ccc(OCc2cccc(F)c2)nc1 [Example 1.2c.3]	85
O=C(Nc1ccccn1)c1ccc(OCc2cccnc2)nc1 [Example 1.2h.1]	2900
CC(C)(C)CCNC(=O)c1ccc(OCc2cccnc2)nc1 [Example 2.3c.1]	2900
O=C(Nc1ccccc1F)c1ccc(OCc2cccc(F)c2)nc1 [Example 1.2c.9]	210
CC(C)NC(=O)c1ccc(OCc2cccc(F)c2)nc1 [Example 1.2c.4]	1000
O=C(Nc1ccc(F)cc1)c1ccc(OCc2cccc(F)c2)nc1 [Example 1.2c.11]	260
O=C(Nc1ccc(Cl)cn1)c1ccc(OCc2cccc(F)c2)nc1 [Example 1.2c.13]	346
O=C(NCC1CCOCC1)c1ccc(OCc2cccc(F)c2)nc1 [Example 1.2c.17]	1100
O=C(Nc1ccc(Cl)cc1F)c1ccc(OCc2cccc(F)c2)nc1 [Example 1.2c.12]	570

The remaining lines, values ahead:

EC50 [nM]	Compound
800	Cc1nc(OCc2ccncc2)ccc1C(=O)N[C@H](C)C1CCCCC1 [Example 1.2n.2]
140	O=C(NC1CCCCC1)c1ccc(OCc2ccccc2)nc1 [Example 1.2a.24]
230	O=C(NCC1CCCCC1)c1ccc(OCc2cccc(F)c2)nc1 [Example 1.2c.16]
4800	C[C@@H](NC(=O)c1ccc(OCc2ccncc2)nc1)C1CC1 [Example 1.2i.5]
190	C[C@@H](NC(=O)c1ccc(OCc2cccc(F)c2)nc1)C1CCCCC1 [Example 1.2c.18]
120	O=C(NC1CCCCC1)c1ccc(OCc2ccsc2)nc1 [Example 2.3a.8]
1500	CCCCOc1ccc(C(=O)N[C@H](C)C2CCCCC2)cn1 [Example 1.2j.6]
870	Cc1nc(OCc2cccc(F)c2)ccc1C(=O)N[C@H](C)C1CCCCC1 [Example 1.2m.2]
1800	Cc1ccc(COc2ccc(C(=O)NC3CCC3)cn2)cc1 [Example 2.3b.1]

Same assay, conditions: Table 2; potentiation of mGluR5 response to glutamate; read-out: EC50

Compound	EC50 [nM]
Cc1cc(OCc2cccc(F)c2)ncc1C(=O)NCCC(C)(C)C	960
O=C(NCC1CCC1)c1ccc(OCc2ccccc2)nc1	130
COc1nc(OCc2cccc(F)c2)ccc1C(=O)NCCC(C)(C)C	> 10000
C[C@@H](NC(=O)c1cnc(OCc2cccc(F)c2)cc1C(F)(F)F)C(C)(C)C	1200
C[C@H](CN1CCC(F)(F)C1)NC(=O)c1ccc(OCc2cccc(F)c2)nc1	> 10000
CC1(O)CC(NC(=O)c2ccc(OCc3cccc(F)c3)nc2)C1 (stereo not shown)	> 10000
O=C(Nc1ccccc1O)c1ccc(OCc2ccccc2)nc1	520
C[C@@H](NC(=O)c1ccc(OCc2cccc(F)c2)[nH]c1=O)C(C)(C)C	> 10000
CC(C)(C)OCCNC(=O)c1ccc(OCc2cccc(F)c2)nc1	> 10000
C[C@@H](NC(=O)c1ccc(OCc2cccc(F)c2)nc1)C(C)(C)C	2.2
COc1cccc(COc2ccc(C(=O)N[C@H](C)C(C)(C)C)cn2)c1	120
Cc1cc(OCc2cccc(F)c2)ncc1C(=O)N[C@H](C)C(C)(C)C	690
COc1c(F)cccc1COc1ccc(C(=O)N[C@H](C)C(C)(C)C)cn1	5200
COc1ccc(COc2ccc(C(=O)N[C@H](C)C(C)(C)C)cn2)cc1F	4600
O=C(NC12CC3CC(CC(C3)C1)C2)c1ccc(OCc2ccccc2)nc1	180
O=C(NC1CC(O)(C(F)(F)F)C1)c1ccc(OCc2cccc(F)c2)nc1 (stereo not shown)	1800
CC(Oc1ccc(C(=O)N[C@H](C)C(C)(C)C)cn1)c1cccc(F)c1 (stereo partly shown)	> 10000
COC[C@@H](NC(=O)c1ccc(OCc2cccc(F)c2)nc1)C(C)(C)C	1900
COc1ccc(F)cc1COc1ccc(C(=O)N[C@H](C)C(C)(C)C)cn1	3500

Further lines, results first:

EC50 [nM]	Compound
130	Cc1cc(OCc2cccc(F)c2)ncc1C(=O)N[C@H](C)C1CCCCC1
3700	CC(NC(=O)c1ccc(OCc2cccc(F)c2)nc1)C1CCCOC1 (stereo not shown)
5300	Cc1cc(C(=O)NCCC(C)(C)C)cnc1OCc1ccncc1
1700	Cc1cc(OCc2ccncc2)ncc1C(=O)NCCC(C)(C)C
1900	C[C@@H](NC(=O)c1cnc(OCc2ccncc2)c(C#N)c1)C1CCCCC1
> 10000	C[C@@H](NC(=O)c1cnc(OCc2ccncc2)c(C(F)(F)F)c1)C1CCCCC1
490	Cc1cc(C(=O)N[C@H](C)C2CCCCC2)cnc1OCc1cccc(F)c1
180	O=C(NC1CCCC1)c1ccc(OCc2ccccc2)nc1
3900	C[C@@H](NC(=O)c1cnc(OCc2ccncc2)cc1C(F)(F)F)C(C)(C)C
1700	C[C@@H](NC(=O)c1ccc(OCc2cccc(F)c2)nc1)C1CCOC(C)(C)C1 (stereo partly shown)
610	Cc1cc(OCc2ccncc2)ncc1C(=O)N[C@H](C)C1CCCCC1
> 10000	COc1nc(OCc2cccc(F)c2)ccc1C(=O)N[C@H](C)C1CCCCC1

Same assay, conditions: mGluR5 expressing cell line

Glu max [%]	Compound
91	C[C@@H](NC(=O)c1ccc(OCc2ccccc2)nc1)C1CCCCC1 [Example 1.2a.2, (R)-6-(Benzyloxy)-N-(1-cyclohexylethyl)nicotinamide]

Same assay, conditions: mGluR5 expressing cell line, potentiation; read-out: EC50

EC50 [nM]	Compound
40	C[C@@H](NC(=O)c1ccc(OCc2ccccc2)nc1)C1CCCCC1 [Example 1.2a.2, (R)-6-(Benzyloxy)-N-(1-cyclohexylethyl)nicotinamide]
